Earlier results, collected in US20230321590A1, “AQUEOUS LIQUID SORBENT” (COMPACT CARBON CAPTURE AS, priority 2020, published 2023).

Conditions: literature values

Row | Structure (SMILES) | Reaction rate constant at 25° C.
1 | CC(C)(N)CO [2-amino-2-methyl-1-propanol (AMP), 2-amino-2-methyl-1-propanol] | 810 m^3kmol^−1s^−1
2 | OCCNCCO [Diethanolamine (DEA), Diethanolamine] | 2375 m^3kmol^−1s^−1
3 | NCCOCCO [Diglycolamine (DGA), Diglycolamine] | 6663 m^3kmol^−1s^−1
4 | CC(O)CNCC(C)O (stereo not drawn) [Diisopropanolamine (DIPA), Diisopropanolamine] | 2585 m^3kmol^−1s^−1
5 | NCCO [Monoethanolamine (MEA), Monoethanolamine] | 7000 m^3kmol^−1s^−1
6 | C1CNCCN1 [Piperazine] | 53700 m^3kmol^−1s^−1
